Where two headings read alike, the source gives them in different places.
Assays:
elastase = test: Flow cytometry of intracellular elastase in Ly6C+ and Ly6G+ spleen cells; assay type: in vivo, mice
Procedure: It was next investigated whether there was a correlation between the numbers of inflammatory cells expressing elastase and the health status. To this end, spleen cells from diabetic mice and those treated with TSA and cured of diabetes were surface labeled with FITC labeled anti-Ly6C antibody (to stain macrophages) and anti-Ly6G antibody (to stain neutrophils). After staining, cells were fixed, permeabilized and incubated with rabbit antibody against elastase, followed by treatment with TRITC-labeled goat anti-rabbit antibody. Cells were analyzed by flow cytometry for the cell surface expression of Ly6C or Ly6G and these cells were gated and analyzed for the intracellular expression of elastase. […] Similarly, the numbers of Ly6G+ neutrophils co-expressing elastase protein were also diminished in TSA treated and cured mice. Thus, TSA treatment abrogated spontaneously occurring T1D in NOD mice, which was negatively correlated with the frequency of both Ly6C+ macrophages and Ly6G+ neutrophils that co-express elastase.

[1] = system: inflammatory genes such as Cela3b, Cpb1, Pnlip and Cel; test: Quantitative real time-PCR of selected top hit genes; assay type: in vivo, mice
Description: Expression levels of selected top hit genes were verified in spleens by quantitative real time-PCR using primer sets that were validated following MIQE guidelines and RNA derived from spleens of mice that were different from those used for microarray analysis. The expression of inflammatory genes such as Cela3b (elastase 3), Cpb1 (carboxyepetidase B1), Pnlip (pancreatic lipase) and Cel (carboxyl ester lipase) was prominent in the spleens of diabetic mice. […] However, Ctrl (chymotrypsin-like) gene substantially over-expressed in the exocrine pancreas was not repressed by TSA treatment, indicating the selectivity of gene regulation by chromatin remodeling in the pancreata. In addition, the mRNA levels of Pnliprp-1 (pancreatic lipase-related protein 1), Pnlilrp-2, Ctrl, Ctrc and Cpa1 were not altered by TSA treatment.

spleen cells [2] = test: Global gene expression profiling of spleen cells by microarray; assay type: in vivo, mice
Procedure: To understand the molecular mechanisms underlying protection against T1D bestowed by TSA treatment in NOD/Ltj mice, transcriptome (gene expression profiling) of spleen cells was analyzed by global gene expression profiling using a microarray approach. To this end, total RNA was isolated from diabetic and cured mice, converted into cRNA and then hybridized to AFFYMETRIX GENECHIP Mouse Genome 430 2.0 microarrays that contain 45,000 probe sets representing 34,000 mouse genes. Three-way analysis of gene expression in untreated-non-diabetic mice, overtly diabetic mice, and those cured by TSA treatment yielded 164 differentially regulated genes, filtered by an ANOVA p-value, 0.05. These highly regulated genes were used for hierarchical clustering. Microarray data sets were deposited at Gene Expression Omnibus (accession no. GSE 26461) (Jayaraman, et al. (2013) PLoS One 8:e55074).
Principal component analysis validated the up-regulation of a set of pro-inflammatory genes in uninduced spleens of overtly diabetic mice, and their repression by TSA treatment. This analysis clearly distinguished the genes that may be responsible for T1D manifestation and therefore of significant impact on the diagnosis of T1D in humans (Jayaraman, et al. (2013) PLoS One 8:e55074).

NOD mice [3] = test: Development of T1D in genetically susceptible NOD mice; assay type: in vivo; settings: NOD mice injected before clinical onset, starting between 18 and 24 weeks of age
elastase gene = settings: cited from earlier work
islets of Langerhans = settings: TSA treatment; cited from earlier work
NOD mice [4] = settings: injection; cited from earlier work
islets = test: Confocal imaging of inflammatory cell infiltration in pancreatic sections; assay type: in vivo; settings: drug-treated and cured mice
Procedure: To visualize the effect of TSA treatment on the infiltration of inflammatory cells in the pancreas, paraffin-embedded pancreatic sections were treated with antibodies against insulin, Ly6C+ macrophages and Ly6G+ neutrophils. Sections were then imaged on a confocal microscope and the images analyzed. Both Ly6C+ macrophages and Ly6G+ neutrophils were evident in the islets of diabetic mice, as identified by co-staining with an anti-insulin antibody. In contrast, both Ly6C+ macrophages and Ly6G+ neutrophils were absent in the islets of drug-treated and cured mice. […] Treatment with TSA effectively eradicated the infiltration of inflammatory cells and thereby provides protection against T1D in the mouse model.

[5] = drug administration in mice; cited from earlier work
spleen cells [6] = test: Flow cytometry of innate immune cell frequency in spleen; assay type: in vivo, mice
Procedure: Insulin-producing beta cells can be destroyed by the inflammatory cells and the pro-inflammatory genes that were identified by microarray analysis and further validated by quantitative RT-PCR. Therefore, it was determined whether amelioration of T1D by TSA treatment involves alteration in the frequency of innate immune cells that are likely to express the Cela3b gene. Therefore, T1D susceptible NOD mice were injected with TSA before the clinical onset of diabetes, starting between 18 and 24 weeks of age, and spleen cells were stained with fluorochrome-labeled antibodies and analyzed by flow cytometry. The numbers of both macrophages of the CD11b+Ly6C+ phenotype and neutrophils expressing CD11b+Ly6G+ determinants, known to exert inflammatory responses and tissue damage, increased in the spleen of overtly diabetic mice when compared to prediabetic mice.

CC(/C=C/C(=O)NO)=C\[C@@H](C)C(=O)c1ccc(N(C)C)cc1 [TSA, Trichostatin A]
numbers of Ly6G+ neutrophils co-expressing elastase protein (elastase; spleens of TSA treated and cured mice): diminished
numbers of Ly6C+ macrophages that contained elastase in the cytoplasm (elastase; spleens of cured versus diabetic mice): significantly lower numbers
Ctrl (chymotrypsin-like) gene expression ([1]; over-expressed in the exocrine pancreas, pancreata): not repressed
mRNA level of Cpa1 ([1]; qRT-PCR): not altered
mRNA level of Ctrc ([1]; qRT-PCR): not altered
mRNA level of Ctrl ([1]; qRT-PCR): not altered
mRNA level of Pnlilrp-2 ([1]; qRT-PCR): not altered
mRNA level of Pnliprp-1 (pancreatic lipase-related protein 1) ([1]; qRT-PCR): not altered
expression level of Cel (carboxyl ester lipase) ([1]; qRT-PCR, spleens): reduced the expression levels of these genes substantially
expression level of Cela3b (elastase 3) ([1]; qRT-PCR, spleens): reduced the expression levels of these genes substantially
expression level of Cpb1 (carboxyepetidase B1) ([1]; qRT-PCR, spleens): reduced the expression levels of these genes substantially
expression level of Pnlip (pancreatic lipase) ([1]; qRT-PCR, spleens): reduced the expression levels of these genes substantially
set of genes (n=17) over-expressed in spleens of acutely diabetic mice (spleen cells [2]; microarray, spleens): repressed
expression of lipases Pnliprp1, Pnliprp2, Cel and Pnilp functionally related to Cela3b (spleen cells [2]; regulated along with Cela3b): downregulated
diabetes (NOD mice [3]): ameliorated diabetes
expression of the elastase gene (elastase gene; peripheral lymphoid organ spleen): significantly lowered
expression of the elastase gene (elastase gene; target organ pancreas): significantly lowered
beta cells producing insulin (islets of Langerhans): preservation of the beta cells
inflammation surrounding the islets of Langerhans (islets of Langerhans): eradication of inflammation surrounding the islets of Langerhans
development of T1D (NOD mice [4]): prevents the development of T1D
Ly6C+ macrophages in the islets (islets): absent
Ly6G+ neutrophils in the islets (islets): absent
side effects or gross pathological changes [5]: did not result in obvious side effects or gross pathological changes
frequency of CD11b+F4/80+ macrophages (spleen cells [6]; spleen, flow cytometry): did not affect the frequency
frequency of CD11b+Ly6C+ macrophages (spleen cells [6]; spleen, flow cytometry): reduced the frequency
frequency of CD11b+Ly6G+ neutrophils (spleen cells [6]; spleen, flow cytometry): reduced the frequency
numbers of dendritic cells expressing CD11c determinant (spleen cells [6]; spleens, versus prediabetic and diabetic mice): Essentially, the same numbers
